# System: adult female mice (uterus, vagina)
# Test: Estrogen responsiveness bioassay in adult females (uterine wet weight, hyperemia, vaginal epithelial cytology)
# Type: in vivo, mouse
# Conditions: for vaginal histology: after estradiol treatment; for increase in uterine wet weight: treated for three days, compared to untreated control
smiles,measurement,setting,value
C[C@]12CC[C@@H]3c4ccc(O)cc4CC[C@H]3[C@@H]1CC[C@@H]2O [estradiol],vaginal histology,ER disrupted animals,unaltered
same,uterine water imbibition or uterine hyperemia,"ER disrupted animals, treatment for 4-6 hours",no uterine water imbibition or uterine hyperemia
same,increase in uterine wet weight,heterozygous animals,3-4 fold
same,increase in uterine weight or hyperemia,"homozygous ER disrupted animals, three day bioassay",did not respond
same,uterine hyperemia,"wild type and heterozygotes, three day bioassay",became hyperemic
same,vaginal histology,wild type and heterozygous animals,increase in number of cornified epithelial cells
same,increase in uterine wet weight,wild type animals,3-4 fold
